# Results reported in patent US20250129091A1, “THIENOPYRROLOTRIAZINE COMPOUNDS, THEIR PREPARATION AND THEIR THERAPEUTIC USE” (Sanofi, priority 2022, published 2025).
# Structures can show the parent of a compound that is named as a salt.
# Tested on: NLRP3 inflammasome
# Assay: IL-1β secretion assay (LPS-primed, nigericin-activated THP-1 cells, MSD readout)
# Format: cell-based
# Conditions: Homo sapiens, THP-1, LPS-primed, read-out: IL1b IC50
# Method: Monocytic THP-1 cells (DSMZ) were maintained in RPMI media (RPMI 1640 Medium (1×) +10% FBS, Eurobio CVFSVFOO—OU). Cells were then plated at 16,000 cells per well in 96-well round bottom cell culture plates (TPP, ref 92097) and maintained with RPMI and 0.1% Bovine Serum Albumin solution. Activation of the NLRP3 inflammasome requires both an NF-kB-dependent priming step and the addition of a NLRP3 activator. The priming step was induced by LPS (10 ng/mL, Sigma, ref:L4391) for 3 h at 37° C., then compound, in a 1:3.10 serial dilution series in DMSO 1:100, and the activator nigericin (Sigma Aldrich, ref: SML1779) 10 μM (final concentration) were added to the cells and co-incubated for 2 h. 50 μL supernatant was removed, and IL-1β levels were monitored using an MSD assay (Electro Chemical Luminescence Immunoassay (ECLI) according to manufacturers' instructions.
# IC50 values were calculated from the plot of percentage of inhibition versus the inhibitor concentration by a logistics fit according to: y=A2+(A1−A2)/(1+(x/IC50)^p) where y is the %-inhibition at the inhibitor concentration, x. A1 is the lowest inhibition value, i.e., 0%, and A2 the maximum inhibition value, i.e., 100%. The exponent, p, is the Hill coefficient. The curve fitting was conducted with an internally developed software.
row,IC50,SMILES
1,5.95 µM,"CC(C)c1nn(CC(=O)Nc2cncnc2)c(=O)c2cc3ccsc3n12 [Example 84, 2-(8-isopropyl-5-oxothieno[3′,2′:4,5]pyrrolo[1,2-d][1,2,4]triazin-6(5H)-yl)-N-pyrimidin-5-ylacetamide]"
2,0.0589 µM,"CC(C)c1nn(CC(=O)N[C@@H]2CCCN(C(C)C)C2)c(=O)c2cc3ccsc3n12 [Example 48, 2-(12-isopropyl-9-oxo-3-thia-1,10,11-triazatricyclo[6.4.0.02,6]dodeca-2(6),4,7,11-tetraen-10-yl)-N-[(3R)-1-isopropyl-3-piperidyl]acetamide]"
3,> 10 µM,"CC(C)c1nn(CC(=O)NC2C[C@@H]3CN[C@H]2C3)c(=O)c2cc3ccsc3n12 (stereo partly drawn) [Example 88, N-[(1S,4R)-2-azabicyclo[2.2.1]heptan-6-yl]-2-(12-isopropyl-9-oxo-3-thia-1,10,11-triazatricyclo[6.4.0.02,6]dodeca-2(6),4,7,11-tetraen-10-yl)acetamidehydrochloride]"
4,8.2 µM,"CC(C)c1nn(CC(=O)NC2CCN(C)C(=O)C2)c(=O)c2cc3ccsc3n12 (centres unmarked) [Example 46, 2-(8-isopropyl-5-oxothieno[3′,2′:4,5]pyrrolo[1,2-d][1,2,4]triazin-6(5H)-yl)-N-(1-methyl-2-oxopiperidin-4-yl)acetamide]"
5,> 10 µM,"CC(C)c1nn(CC(=O)NC2CCNC(=O)C2)c(=O)c2cc3ccsc3n12 (centres unmarked) [Example 85, 2-(12-isopropyl-9-oxo-3-thia-1,10,11-triazatricyclo[6.4.0.02,6]dodeca-2(6),4,7,11-tetraen-10-yl)-N-(2-oxo-4-piperidyl)acetamide]"
6,2.74 µM,"CC(C)c1nn(CC(=O)Nc2ccc3scnc3c2)c(=O)c2cc3ccsc3n12 [Example 15, N-(benzo[d]thiazol-5-yl)-2-(8-isopropyl-5-oxothieno[3′,2′:4,5]pyrrolo[1,2-d][1,2,4]triazin-6(5H)-yl)acetamide]"
7,2.28 µM,"Cc1ccc(NC(=O)Cn2nc(C(C)C)n3c(cc4ccsc43)c2=O)cn1 [Example 68, 2-(12-isopropyl-9-oxo-3-thia-1,10,11-triazatricyclo[6.4.0.02,6]dodeca-2(6),4,7,11-tetraen-10-yl)-N-(6-methyl-3-pyridyl)acetamide]"
8,0.148 µM,"CC(C)c1nn(CC(=O)Nc2ncncc2F)c(=O)c2cc3ccsc3n12 [Example 70, N-(5-fluoropyrimidin-4-yl)-2-(12-isopropyl-9-oxo-3-thia-1,10,11-triazatricyclo[6.4.0.02,6]dodeca-2(6),4,7,11-tetraen-10-yl)acetamide]"
9,0.13 µM,"CCc1nn(CC(=O)N[C@@H]2CCCN(C3CC3)C2)c(=O)c2cc3ccsc3n12 [Example 60, N-[(3R)-1-cyclopropyl-3-piperidyl]-2-(12-ethyl-9-oxo-3-thia-1,10,11-triazatricyclo [6.4.0.02,6]dodeca-2(6),4,7,11-tetraen-10-yl)acetamide]"
10,1.03 µM,"CC(C)c1nn(CC(=O)Nc2ccc3cnn(C)c3c2)c(=O)c2cc3ccsc3n12 [Example 27, 2-(8-isopropyl-5-oxothieno[3′,2′:4,5]pyrrolo[1,2-d][1,2,4]triazin-6(5H)-yl)-N-(1-methyl-1H-indazol-6-yl)acetamide formate]"
11,0.159 µM,"CC(C)c1nn(CC(=O)N[C@@H]2CCCCN(C3CC3)C2)c(=O)c2cc3ccsc3n12 [Example 61, N-[(3R)-1-cyclopropylazepan-3-yl]-2-(12-isopropyl-9-oxo-3-thia-1,10,11-triazatricyclo [6.4.0.02,6]dodeca-2(6),4,7,11-tetraen-10-yl)acetamide]"
12,1.79 µM,"CC(C)c1nn(CC(=O)Nc2cncs2)c(=O)c2cc3cc(Cl)sc3n12 [Example 7, 2-(2-chloro-8-isopropyl-5-oxothieno[3′,2′:4,5]pyrrolo[1,2-d][1,2,4]triazin-6(5H)-yl)-N-(thiazol-5-yl)acetamide]"
13,0.54 µM,"CC(C)c1nn(CC(=O)Nc2ccc3ncsc3c2)c(=O)c2cc3ccsc3n12 [Example 12, N-(benzo[d]thiazol-6-yl)-2-(8-isopropyl-5-oxothieno[3′,2′:4,5]pyrrolo[1,2-d][1,2,4]triazin-6(5H)-yl)acetamide]"
14,9.56 µM,"Cc1cc2cc3c(=O)n(CC(=O)N[C@@H]4CCCN(C)C4)nc(C(C)C)n3c2s1 [Example 9, (R)-2-(8-isopropyl-2-methyl-5-oxothieno[3′,2′:4,5]pyrrolo[1,2-d][1,2,4]triazin-6(5H)-yl)-N-(1-methylpiperidin-3-yl)acetamide 2,2,2-trifluoroacetate]"
15,0.259 µM,"CC(C)c1nn(CC(=O)N[C@@H]2CCCN(C3COC3)C2)c(=O)c2cc3ccsc3n12 [Example 40, (R)-2-(8-isopropyl-5-oxothieno[3′,2′:4,5]pyrrolo[1,2-d][1,2,4]triazin-6(5H)-yl)-N-(1-(oxetan-3-yl)piperidin-3-yl)acetamide]"
16,1.3 µM,"CC(C)c1nn(CC(=O)NC2CCCN(CC(F)(F)F)C2)c(=O)c2cc3ccsc3n12 (centres unmarked) [Example 38, 2-(8-isopropyl-5-oxothieno[3′,2′:4,5]pyrrolo[1,2-d][1,2,4]triazin-6(5H)-yl)-N-(1-(2,2,2-trifluoroethyl)piperidin-3-yl)acetamide 2,2,2-trifluoroacetate]"
17,3.06 µM,"COCc1nn(CC(=O)N[C@@H]2CCCN(C3CCC3)C2)c(=O)c2cc3ccsc3n12 [Example 32, (R)—N-(1-cyclobutylpiperidin-3-yl)-2-(8-(methoxymethyl)-5-oxothieno [3′,2′:4,5]pyrrolo[1,2-d][1,2,4]triazin-6(5H)-yl)acetamide]"
18,0.768 µM,"CC(C)c1nn(C(C)C(=O)N[C@@H]2CCCN(C3CCC3)C2)c(=O)c2cc3ccsc3n12 (stereo partly drawn) [Example 25, N—((R)-1-cyclobutylpiperidin-3-yl)-2-(8-isopropyl-5-oxothieno[3′,2′:4,5]pyrrolo[1,2-d][1,2,4]triazin-6(5H)-yl)propanamide formate]"
19,1.14 µM,"COCc1nn(CC(=O)N[C@@H]2CCCN(C3CCC3)C2)c(=O)c2cc3cc(Cl)sc3n12 [Example 29, (R)-2-(2-chloro-8-(methoxymethyl)-5-oxothieno[3′,2′:4,5]pyrrolo[1,2-d][1,2,4]triazin-6(5H)-yl)-N-(1-cyclobutylpiperidin-3-yl)acetamide formate]"
20,0.078 µM,"CC(C)c1nn(CC(=O)N[C@@H]2CCCN(CCC#N)C2)c(=O)c2cc3ccsc3n12 [Example 77, N-[(3R)-1-(2-cyanoethyl)piperidin-3-yl]-2-(8-isopropyl-5-oxothieno[3′,2′:4,5]pyrrolo[1,2-d][1,2,4]triazin-6(5H)-yl)acetamide]"
21,0.07 µM,"CC(C)c1nn(CC(=O)N[C@@H]2CCCN(C3(C)CCCC3)C2)c(=O)c2cc3ccsc3n12 [Example 71, 2-(12-isopropyl-9-oxo-3-thia-1,10,11-triazatricyclo[6.4.0.02,6]dodeca-2(6),4,7,11-tetraen-10-yl)-N-[(3R)-1-(1-methylcyclopentyl)-3-piperidyl]acetamide]"
22,1.2 µM,"COCc1nn(CC(=O)N[C@@H]2CCCN(C3CC3)C2)c(=O)c2cc3cc(Cl)sc3n12 [Example 30, (R)-2-(2-chloro-8-(methoxymethyl)-5-oxothieno[3′,2′:4,5]pyrrolo[1,2-d][1,2,4]triazin-6(5H)-yl)-N-(1-cyclopropylpiperidin-3-yl)acetamide formate]"
23,1.15 µM,"CC(=O)N1CCC[C@@H](NC(=O)Cn2nc(C(C)C)n3c(cc4ccsc43)c2=O)C1 [Example 42, (R)—N-(1-acetylpiperidin-3-yl)-2-(8-isopropyl-5-oxothieno[3′,2′:4,5]pyrrolo[1,2-d][1,2,4]triazin-6(5H)-yl)acetamide]"
24,1.71 µM,"CC(C)c1nn(CC(=O)Nc2ccn(C)n2)c(=O)c2cc3ccsc3n12 [Example 54, 2-(12-isopropyl-9-oxo-3-thia-1,10,11-triazatricyclo[6.4.0.02,6]dodeca-2(6),4,7,11-tetraen-10-yl)-N-(1-methylpyrazol-3-yl)acetamide]"
25,3.8 µM,"COc1cc(NC(=O)Cn2nc(C(C)C)n3c(cc4ccsc43)c2=O)ccn1 [Example 65, 2-(8-isopropyl-5-oxothieno[3′,2′:4,5]pyrrolo[1,2-d][1,2,4]triazin-6(5H)-yl)-N-(2-methoxypyridin-4-yl)acetamide]"
26,1.53 µM,"CC(C)c1nn(CC(=O)N[C@@H]2CCCN(c3nccn3C)C2)c(=O)c2cc3ccsc3n12 [Example 45, (R)-2-(8-isopropyl-5-oxothieno[3′,2′:4,5]pyrrolo[1,2-d][1,2,4]triazin-6(5H)-yl)-N-(1-(1-methyl-1H-imidazol-2-yl)piperidin-3-yl)acetamide]"
27,0.109 µM,"COCC(C)N1CCC[C@@H](NC(=O)Cn2nc(C(C)C)n3c(cc4ccsc43)c2=O)C1 (stereo partly drawn) [Example 64, 2-(8-isopropyl-5-oxothieno[3′,2′:4,5]pyrrolo[1,2-d][1,2,4]triazin-6(5H)-yl)-N-((3R)-1-(1-methoxypropan-2-yl)piperidin-3-yl)acetamide]"

# Same assay, conditions: LPS-primed, read-out: IL1b IC50
row,IC50,SMILES
1,> 10 µM,"CC(O)c1nn(CC(=O)N[C@@H]2CCCN(C3CCC3)C2)c(=O)c2cc3ccsc3n12 (single isomer, unassigned) [Example 81]"
2,0.65 µM,"CC(O)c1nn(CC(=O)N[C@@H]2CCCN(C3CCC3)C2)c(=O)c2cc3ccsc3n12 (single isomer, unassigned) [Example 50]"
